Measured values reported in ChEMBL document CHEMBL5465560, “Selectivity Literature for EUbOPEN Chemogenomic Library” (2024).

Assays:
[1] = target: T1, Serine/threonine-protein kinase D3 (Homo sapiens) (UniProt O94806); assay: Selectivity interaction (KinomeScan (DiscoverX)) EUB0000607a PRKD3; settings: at 10 µM
T1 sequence (whole entry): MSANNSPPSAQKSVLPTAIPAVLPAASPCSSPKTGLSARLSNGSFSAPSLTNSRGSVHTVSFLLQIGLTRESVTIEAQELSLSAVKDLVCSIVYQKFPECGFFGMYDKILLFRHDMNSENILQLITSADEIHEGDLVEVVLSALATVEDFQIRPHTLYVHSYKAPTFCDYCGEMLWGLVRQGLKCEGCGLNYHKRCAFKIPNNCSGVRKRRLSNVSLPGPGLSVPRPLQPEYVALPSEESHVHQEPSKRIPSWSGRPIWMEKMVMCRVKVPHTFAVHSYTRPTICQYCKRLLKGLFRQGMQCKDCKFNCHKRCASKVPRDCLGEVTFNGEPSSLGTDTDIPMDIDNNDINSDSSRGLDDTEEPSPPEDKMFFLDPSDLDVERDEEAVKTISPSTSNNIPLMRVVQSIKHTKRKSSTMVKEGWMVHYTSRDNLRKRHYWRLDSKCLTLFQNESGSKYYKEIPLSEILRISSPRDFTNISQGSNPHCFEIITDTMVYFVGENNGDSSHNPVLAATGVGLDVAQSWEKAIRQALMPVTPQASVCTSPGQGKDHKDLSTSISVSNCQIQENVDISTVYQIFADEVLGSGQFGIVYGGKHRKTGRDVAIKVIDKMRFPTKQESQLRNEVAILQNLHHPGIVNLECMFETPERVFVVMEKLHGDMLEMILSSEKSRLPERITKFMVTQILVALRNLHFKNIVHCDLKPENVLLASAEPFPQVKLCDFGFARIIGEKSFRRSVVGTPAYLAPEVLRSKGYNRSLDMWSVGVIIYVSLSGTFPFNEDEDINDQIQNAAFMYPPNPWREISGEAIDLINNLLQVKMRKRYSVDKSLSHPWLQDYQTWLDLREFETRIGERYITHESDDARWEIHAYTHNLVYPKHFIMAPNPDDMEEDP

[2] = system: Epidermal growth factor receptor (Homo sapiens), P00533 [L861Q]; assay: Selectivity interaction (SelectScreen profiling (Invitrogen)) EUB0000607a EGFR; settings: at 2 µM
Sequence of Epidermal growth factor receptor (Homo sapiens), P00533 [L861Q] (P00533 whole entry L861Q): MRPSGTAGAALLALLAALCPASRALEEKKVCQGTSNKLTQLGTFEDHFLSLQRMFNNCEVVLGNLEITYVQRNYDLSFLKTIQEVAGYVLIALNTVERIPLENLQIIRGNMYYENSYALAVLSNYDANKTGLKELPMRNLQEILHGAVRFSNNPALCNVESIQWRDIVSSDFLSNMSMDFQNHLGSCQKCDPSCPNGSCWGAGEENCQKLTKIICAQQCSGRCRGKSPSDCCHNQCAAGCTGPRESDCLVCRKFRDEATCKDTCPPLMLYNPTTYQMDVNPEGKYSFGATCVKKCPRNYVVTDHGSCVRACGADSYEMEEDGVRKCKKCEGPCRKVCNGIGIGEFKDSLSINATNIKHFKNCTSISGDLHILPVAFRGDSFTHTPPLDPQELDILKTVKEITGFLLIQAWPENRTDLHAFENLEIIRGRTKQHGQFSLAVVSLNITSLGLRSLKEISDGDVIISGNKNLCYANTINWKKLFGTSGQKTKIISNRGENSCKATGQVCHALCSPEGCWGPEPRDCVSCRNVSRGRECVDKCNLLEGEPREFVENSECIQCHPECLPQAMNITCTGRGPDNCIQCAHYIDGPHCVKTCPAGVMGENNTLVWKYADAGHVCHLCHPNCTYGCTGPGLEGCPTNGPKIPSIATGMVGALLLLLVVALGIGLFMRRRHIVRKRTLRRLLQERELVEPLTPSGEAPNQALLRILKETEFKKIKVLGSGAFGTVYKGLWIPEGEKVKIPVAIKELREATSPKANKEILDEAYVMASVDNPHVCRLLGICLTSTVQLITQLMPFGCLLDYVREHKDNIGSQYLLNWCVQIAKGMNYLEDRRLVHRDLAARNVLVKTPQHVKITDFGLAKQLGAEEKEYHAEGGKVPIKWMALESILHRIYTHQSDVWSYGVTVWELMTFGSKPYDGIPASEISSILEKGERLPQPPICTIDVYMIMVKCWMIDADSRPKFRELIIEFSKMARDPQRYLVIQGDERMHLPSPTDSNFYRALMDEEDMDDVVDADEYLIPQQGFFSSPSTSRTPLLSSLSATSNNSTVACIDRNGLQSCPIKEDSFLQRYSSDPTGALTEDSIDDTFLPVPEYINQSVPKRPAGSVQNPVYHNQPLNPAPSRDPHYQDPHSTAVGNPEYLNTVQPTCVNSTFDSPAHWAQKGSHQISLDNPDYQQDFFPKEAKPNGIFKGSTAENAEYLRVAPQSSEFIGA

[3] = target: BDNF/NT-3 growth factors receptor (Homo sapiens) (UniProt Q16620); assay: Selectivity interaction (KinomeScan (DiscoverX)) EUB0001049a NTRK2; settings: at 1 µM
Sequence of BDNF/NT-3 growth factors receptor (Homo sapiens) (Q16620 32-822 limits assumed): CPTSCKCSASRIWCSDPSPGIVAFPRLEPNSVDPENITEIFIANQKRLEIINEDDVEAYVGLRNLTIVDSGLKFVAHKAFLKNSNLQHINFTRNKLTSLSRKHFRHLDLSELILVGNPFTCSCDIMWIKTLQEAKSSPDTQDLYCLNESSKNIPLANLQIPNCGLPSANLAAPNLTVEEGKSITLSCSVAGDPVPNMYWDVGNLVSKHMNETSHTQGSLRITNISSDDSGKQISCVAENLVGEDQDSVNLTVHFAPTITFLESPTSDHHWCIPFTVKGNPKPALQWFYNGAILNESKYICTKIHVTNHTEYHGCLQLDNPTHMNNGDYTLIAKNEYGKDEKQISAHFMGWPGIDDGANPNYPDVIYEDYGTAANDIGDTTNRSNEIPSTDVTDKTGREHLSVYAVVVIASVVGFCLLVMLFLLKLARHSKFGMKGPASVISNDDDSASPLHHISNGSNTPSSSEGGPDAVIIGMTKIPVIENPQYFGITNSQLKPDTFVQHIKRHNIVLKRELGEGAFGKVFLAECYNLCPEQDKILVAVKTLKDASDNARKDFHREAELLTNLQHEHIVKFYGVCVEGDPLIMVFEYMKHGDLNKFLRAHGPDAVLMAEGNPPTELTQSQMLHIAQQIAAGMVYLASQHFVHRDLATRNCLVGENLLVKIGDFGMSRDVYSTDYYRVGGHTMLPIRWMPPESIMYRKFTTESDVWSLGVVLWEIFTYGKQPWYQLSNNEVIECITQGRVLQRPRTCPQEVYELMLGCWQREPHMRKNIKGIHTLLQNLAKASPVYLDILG

[4] = target: T2, Mitogen-activated protein kinase kinase kinase 2 (Homo sapiens) (UniProt Q9Y2U5); assay: Selectivity interaction (KinomeScan (DiscoverX)) EUB0000618a MAP3K2; settings: at 10 µM
T2 sequence (whole entry): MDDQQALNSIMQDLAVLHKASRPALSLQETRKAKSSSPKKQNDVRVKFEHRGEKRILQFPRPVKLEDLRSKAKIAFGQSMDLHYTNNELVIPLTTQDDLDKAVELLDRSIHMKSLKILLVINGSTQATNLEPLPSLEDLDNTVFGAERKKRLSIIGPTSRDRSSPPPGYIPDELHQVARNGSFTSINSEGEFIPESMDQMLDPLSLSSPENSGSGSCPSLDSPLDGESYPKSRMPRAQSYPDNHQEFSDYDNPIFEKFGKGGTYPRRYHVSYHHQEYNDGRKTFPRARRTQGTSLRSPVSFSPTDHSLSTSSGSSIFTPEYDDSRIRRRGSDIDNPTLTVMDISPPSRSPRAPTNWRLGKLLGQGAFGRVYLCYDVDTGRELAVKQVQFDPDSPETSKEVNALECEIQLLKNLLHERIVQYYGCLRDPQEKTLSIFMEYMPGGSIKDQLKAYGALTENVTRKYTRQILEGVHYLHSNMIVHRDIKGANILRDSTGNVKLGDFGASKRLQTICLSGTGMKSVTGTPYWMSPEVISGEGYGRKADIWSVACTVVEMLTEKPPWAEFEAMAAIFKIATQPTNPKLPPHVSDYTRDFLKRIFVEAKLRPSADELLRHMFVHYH

[5] = target: T3, Alpha-1A adrenergic receptor (Homo sapiens) (UniProt P35348); assay: Selectivity interaction (Eurofins CEREP Diversity Profile (receptors and ion channels)) EUB0000279b ADRA1A; settings: at 10 µM
T3 sequence (whole entry): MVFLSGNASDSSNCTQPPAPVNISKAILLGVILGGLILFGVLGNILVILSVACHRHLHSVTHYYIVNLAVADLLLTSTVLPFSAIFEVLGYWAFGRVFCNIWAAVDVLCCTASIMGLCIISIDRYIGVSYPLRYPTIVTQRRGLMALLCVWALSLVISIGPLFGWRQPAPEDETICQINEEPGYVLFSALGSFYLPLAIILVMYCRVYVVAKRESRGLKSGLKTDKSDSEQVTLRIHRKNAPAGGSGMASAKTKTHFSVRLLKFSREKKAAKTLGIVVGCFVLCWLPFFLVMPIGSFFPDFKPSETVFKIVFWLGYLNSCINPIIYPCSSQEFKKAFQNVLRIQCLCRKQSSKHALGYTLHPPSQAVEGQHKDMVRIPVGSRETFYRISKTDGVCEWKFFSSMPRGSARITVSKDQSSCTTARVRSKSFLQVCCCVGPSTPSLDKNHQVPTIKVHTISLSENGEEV

[6] = target: Cyclin-dependent kinase 4/cyclin D1 (Homo sapiens) (UniProt P11802+P24385); assay: (§1) Selectivity interaction (Ambit KINOMEscan and KiNATiv profiling in Jurkat cells) EUB0000090b CDK4; type: cell-based; settings: at 1 µM
[7] = target: CDK4/Cyclin D3 (Homo sapiens) (UniProt P11802+P30281); assay: as §1; type: cell-based; settings: at 1 µM
[8] = target: T4, NUAK family SNF1-like kinase 1 (Homo sapiens) (UniProt O60285); assay: Selectivity interaction (Ambit KINOMEscan and KiNATiv profiling in Jurkat cells) EUB0000090b NUAK1; type: cell-based; settings: at 1 µM
T4 sequence (whole entry): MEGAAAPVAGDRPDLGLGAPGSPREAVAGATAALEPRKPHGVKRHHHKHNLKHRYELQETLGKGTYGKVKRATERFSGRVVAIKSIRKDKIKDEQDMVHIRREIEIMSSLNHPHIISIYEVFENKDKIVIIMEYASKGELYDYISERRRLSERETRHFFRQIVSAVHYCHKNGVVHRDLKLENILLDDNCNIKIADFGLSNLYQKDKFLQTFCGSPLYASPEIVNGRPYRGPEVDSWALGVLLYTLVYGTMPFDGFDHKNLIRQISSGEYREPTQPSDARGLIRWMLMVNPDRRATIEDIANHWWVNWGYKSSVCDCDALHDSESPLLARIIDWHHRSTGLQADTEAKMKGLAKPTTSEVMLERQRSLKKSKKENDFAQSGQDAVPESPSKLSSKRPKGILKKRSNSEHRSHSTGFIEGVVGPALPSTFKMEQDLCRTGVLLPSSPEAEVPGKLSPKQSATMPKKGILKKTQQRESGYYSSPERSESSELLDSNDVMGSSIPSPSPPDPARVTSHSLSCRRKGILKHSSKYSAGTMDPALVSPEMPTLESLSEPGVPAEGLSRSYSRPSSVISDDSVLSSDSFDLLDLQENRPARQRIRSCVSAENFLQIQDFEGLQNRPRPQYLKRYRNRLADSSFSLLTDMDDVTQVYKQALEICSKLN

`CNC(=O)Nc1ccc(-c2nc(N3CC4CCC(C3)O4)c3cnn(C4CCC5(CC4)OCCO5)c3n2)cc1` was tested, and the % of control [1] was 100% and the % of inhibition [2] was -1%.
For `COc1cc(Nc2nc(C)cc(-c3cnn4nc(OC)ccc34)n2)cc(C(F)(F)F)c1`, the % of control [3] was 96%.
In the case of `O[C@H]1CC[C@H](Nc2ncc3nc(Nc4c(F)cc(F)cc4F)n([C@H]4CCOC4)c3n2)CC1`, the % of control [4] is reported as 82%.
`CC(=O)c1cc(-c2ccccc2OCC2CC2)c2ncccn12` gave a % of control [5] of 94%.
Molecule `CN(C)C/C=C/C(=O)Nc1ccc(C(=O)N2CCCC(Nc3ncc(Cl)c(-c4c[nH]c5ccccc45)n3)C2)cc1` (stereo not drawn) has a % of control [6] of 59%, a % of control [7] of 94% and a % of control [8] of 84%.
